Assay results: PubChem BioAssay (NCI)
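Method: 48-hour compound exposure of cells in 96-well plates, five concentrations, linear interpolation of endpoints. GI50 = concentration required for 50% inhibition of growth. Definition used: TGI = concentration required for complete inhibition of growth.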

Assays:
Assay in all cases: growth of human tumour cells (NCI), 48 h
U251 CNS = test system: U251 CNS
CCRF-CEM leukemia = test system: CCRF-CEM leukemia
HS 578T breast = test system: HS 578T breast
UO-31 renal = test system: UO-31 renal
MCF7 breast = test system: MCF7 breast
NCI-H226 lung = test system: NCI-H226 lung
SK-MEL-2 melanoma = test system: SK-MEL-2 melanoma
RXF 393 renal = test system: RXF 393 renal
NCI-H23 lung = test system: NCI-H23 lung
K-562 leukemia = test system: K-562 leukemia

| SMILES | GI50 (U251 CNS) [µM] | TGI (U251 CNS) [µM] | GI50 (CCRF-CEM leukemia) [µM] | TGI (CCRF-CEM leukemia) [µM] | GI50 (HS 578T breast) [µM] | TGI (HS 578T breast) [µM] | GI50 (UO-31 renal) [µM] | TGI (UO-31 renal) [µM] | GI50 (MCF7 breast) [µM] | TGI (MCF7 breast) [µM] | GI50 (NCI-H226 lung) [µM] | TGI (NCI-H226 lung) [µM] | GI50 (SK-MEL-2 melanoma) [µM] | TGI (SK-MEL-2 melanoma) [µM] | GI50 (RXF 393 renal) [µM] | TGI (RXF 393 renal) [µM] | GI50 (NCI-H23 lung) [µM] | TGI (NCI-H23 lung) [µM] | GI50 (K-562 leukemia) [µM] | TGI (K-562 leukemia) [µM] |
| --- | --- | --- | --- | --- | --- | --- | --- | --- | --- | --- | --- | --- | --- | --- | --- | --- | --- | --- | --- | --- |
| Clc1ccc2nc(CI)c(CI)nc2c1 | 2.71 | 7.23 | 2.3 | 15.3 | 20.6 | > 65.5 | 1.72 | 3.5 | 2.87 | 9.53 | 10.4 | > 38 | 6.45 | > 32.6 | 4.04 | 9.36 | 7.37 | 25.8 | 1.53 | 7.86 |
| CCCCCCCC/C=C1\CCC(CN2CCOCC2)C1=O (centres undefined) | – | 28 | – | 10.9 | – | 50.6 | – | 16.6 | – | 6.18 | – | 33.3 | – | 28.8 | – | 25.3 | – | 24.4 | – | 8.68 |
| NC(N)=NC(N)=NCCCc1ccco1 | 150 | > 500 | 21.8 | 121 | 96 | 383 | 65.2 | 195 | 334 | > 500 | 98.3 | 351 | 47.5 | 115 | 77.5 | 237 | 463 | > 500 | 24.5 | 238 |
| Cc1[nH]c(N)nc(=S)c1CCC(=O)O | – | > 100 | – | > 100 | – | > 100 | – | > 100 | – | > 100 | – | > 100 | – | > 100 | – | > 100 | – | > 100 | – | > 100 |
| O=C(c1ccco1)c1c(C(F)(F)F)n([O-])c2cc(C(F)(F)F)ccc2[n+]1=O | 0.46 | 0.951 | < 0.0434 | 0.352 | 1.36 | – | 0.517 | 1.02 | 0.445 | 1.95 | 1.77 | 3.58 | 2.62 | 6.73 | 0.43 | 0.929 | 1.15 | 2.62 | 0.172 | 0.379 |
| CC(=O)O[C@H]1C(=O)[C@@]2(C)[C@H]([C@H](OC(=O)c3ccccc3)[C@]3(O)C[C@H](OC(=O)[C@H](OC(=O)OC[C@H]4COC(C)(C)O4)[C@@H](NC(=O)c4ccccc4)c4ccccc4)C(C)=C1C3(C)C)[C@]1(OC(C)=O)CO[C@@H]1C[C@@H]2O | 0.0288 | > 33.3 | 0.0265 | > 33.3 | 0.0166 | 0.39 | 0.738 | > 33.3 | 0.00506 | > 33.3 | 0.29 | > 33.3 | 0.0978 | > 33.3 | 0.0307 | 0.201 | 0.0476 | > 33.3 | 0.0122 | > 33.3 |
| Cc1ccc2c(c1)C(=O)c1c-2c(OCCCN(C)C)nc2ccccc12 | 4.13 | 14.8 | 1.62 | 9.13 | 4.24 | 19.8 | 1.13 | 8.26 | 0.609 | 2.03 | 2.49 | 13.7 | 11.7 | 27.4 | 2.26 | 12.7 | 1.66 | 4.48 | 1.11 | 2.98 |
